US20260028374A1, “EPIDERMAL GROWTH FACTOR RECEPTOR INHIBITORS” (FILAMON LTD, priority 2023, published 2026)
Square brackets hold non-standard residues; d marks the D form. Peptide text beside a SMILES is read from it. 2Nal = N[C@@H](Cc1ccc2ccccc2c1)C(=O)O

What was measured:
EGFR = EGFR (Homo sapiens, UniProt P00533); test: Western blot of EGFR in PC-3 cells; format: cell-based; settings: PC-3, 100 μM, 24 hours
Description: FIG. 3. (a) PC-3 cells treated with DMSO (0.5%), FLM-c2 (100 μM), D1-D3 (100 μM) or EGF (50 ng/mL) for 24 h, detected for EGFR and GAPDH. (b) PC-3 cells tagged with EGFR-EGFP and lysotracker treated with DMSO (0.5%) or D3 (100 μM) for 24 h.
FIG. 4. (a) PC-3 cells were treated with D1-D3 (100 μM) for 3, 16, 24 and 48 hours. EGFR and ß-Actin ratio was detected. (b) the EGFR:ß-Actin ratio was plotted after normalising to DMSO control.
PC-3 cells were seeded in a 6 well plate at 200,000 cells/well overnight at 37° C. and 5% C02. Media was removed, cells were washed with PBS and serum free media added 1 hour before treatment with FLM-c2, D1-D3 for 3-48 hours. After treatment, media was removed and cells were washed with ice cold PBS. PBS was removed and cells were scraped into 1 mL of PBS containing 5.3 mM of EDTA and centrifuged at 2500 g for 2 min. PBS was removed and cells were lysed with lysis buffer (PBS, 0.1% NP-40, 0.1% sodium deoxycholate, 150 mM NaCl, 1 mM EDTA, 1 mM dithiothreitol, 1 mM phenylmethylsulfonyl fluoride, and IX protease inhibitor cocktail)^17 and mixed with RM-2L Intelli-mixer for 30 min at 4° C. Lysates were then centrifuged at 12,000 g for 20 min at 4° C. 20 μg of lysate was added to 4 μL of Bolt reducing agent and 10 μL of reducing buffer (both reagents supplied by Thermo Fisher Scientific) for a final volume of 40 μL with PBS. Samples were boiled and run on a gel, transferred to a membrane and blocked for 1 hour in 5% skim milk at 25° C. Membrane was probed with either EGFR antibody #2232, GAPDH antibody #2118 or BS-Actin antibody #4970 (Cell Signalling) at 1:1000 in 5% skim milk/TBST overnight at 4° C. Each membrane was washed three times with 50 mL TBST for 5 mins and then incubated with the relevant secondary α-rabbit IgG-HRP-linked antibody (1:1000), for 1 hour at room temperature. The membrane was washed as described above and imaged with the Licor Odyssey.

PC-3 cells = test: MTS cell viability assay; format: cell-based; settings: PC-3, MTS, 72 hours, 0-250 μM
Description: FIG. 2. (a) Structure of FLM-c2 derivatives D1 (top), D2 (middle) and D3 (bottom) (b) Molecular modelling of compounds D1, D2 and D3. Representation of the molecules are as described in FIG. 1. (c) MTS assay of PC-3 cells treated with FLM-c2, D-1 D3 (0.1-250 μM).
To quantify cell toxicity of FLM-c2, the MTS (3-(4,5-dimethylthiazol-2-yl)-5-(3-carboxymethoxyphenyl)-2-(4-sulfophenyl)-2H-tetrazolium) assay was performed using CellTiter 96@AQueous One Solution Cell Proliferation Assay reagent (Promega, Madison, WI), as per the manufacturer's instructions. PC-3 cells were seeded at 2000 cells per well on a 96 well plate overnight at 37° C. and 5% C02. Cells were then treated with 0-250 μM with each of FLM-c2, D1, D2 and D3, which was incubated for 72 hours at 37° C. and 5% C02. Medium was replaced with 100 μL/well of phenol red-free MEM (Sigma-Aldrich) and 20 μL/well of the MTS reagent was added. After incubation for 3 hours in 37° C. with 5% C02, the absorbance was measured at 490 nm with Spectramax M5e.

[1] = test system: EGFR, Rab5 and hGIIA localisation; test: Live cell imaging of EGFR, Rab5 and hGIIA localisation in PC-3 cells; format: cell-based; settings: PC-3, c2 10 μM with hGIIA/AF647, 24 hours
Description: The effect of c2 on EGFR, Rab5 and hGIIA localisation was also examined in PC-3 cells. PC-3 cells were co-transfected with EGFR-EGFP and Rab5-mCherry before treatment with hGIIA/AF647 and c2 at 0, 1 and 10 μM.

EGF-EGFR interaction = molecular target: T1, EGF-EGFR interaction (Homo sapiens, UniProt P00533); test: EGF-EGFR AlphaLISA assay; format: binding; settings: in vitro AlphaLISA
T1 construct: purchased Perkin-Elmer
Description: FIG. 2. […] Representation of the molecules are as described in FIG. 1.
The AlphaLISA EGF/EGFR binding kit (Perkin-Elmer) was used as per the manufacturer's instructions. […] Finally, 5 μL of EGFR acceptor beads were added, and fluorescence imaged on a plate reader.

[2] = molecular target: T2, hGIIA interaction with EGFR (Homo sapiens, UniProt P00533); test: Co-immunoprecipitation of hGIIA and EGFR in PC-3 cells; format: cell-based; settings: PC-3, hGIIA 2 μg/mL, FLM-c2 100 μM
T2 construct: endogenous in cells; host or cells: PC-3
Description: FIG. 1. (a), Amino acid sequence of human group IIA-secreted phospholipase A2 (hGIIA) predicted to interact with EGF-binding site of EGFR shown in magenta; helices shown as red braids; β strands as green arrows; and loops as blue lines. Sequence from which FLM-c2 is derived shown with orange box. (b), Prostate cancer cell line PC-3 incubated with hGIIA (2 μg/mL) and FLM-c2 (100 μM) for 3 hours before lysing and pulldown with hGIIA antibody followed by detection with EGFR antibody. (c), molecular modelling of EGF (pink ribbon) and (d), FLM-c2 analogue (cyclo-(Phe-Leu-Ser-Phe-Arg)) (stick diagram. Yellow, carbon; blue, nitrogen; red oxygen) binding to EGFR. EGFR is depicted as a surface model (red, basic surfaces; blue, acidic surfaces, yellow; cysteine residues; green, hydrophobic surfaces; white neutral surfaces). (e) PC-3 cells co-transfected with Rab5-mCherry (red), EGFR-GFP (green) and treated with hGIIA/AF647 (purple) as well as c2 at 1 μM and 10 μM for 24 hours. EGF (25 ng/mL) and Lapatinib (5 μM) were used as control treatments. N=3, >5 cells per replicate.
PC-3 cells were seeded in a 6-well plate at 300,000 cells/well and grown overnight at 37° C. and 5% CO2. Cells were then incubated with 2 μg/mL hGIIA with and without FLM-c2 (100 μM) for two hours. After incubation, cells were washed three times with 10 mL ice cold PBS for 2 min. […]

[3] = test system: hGIIA-driven eicosanoid production; settings: prostate cancer cells; Mann et al. in review; cited from earlier work

T1 sequence (P00533 25-645 limits assumed): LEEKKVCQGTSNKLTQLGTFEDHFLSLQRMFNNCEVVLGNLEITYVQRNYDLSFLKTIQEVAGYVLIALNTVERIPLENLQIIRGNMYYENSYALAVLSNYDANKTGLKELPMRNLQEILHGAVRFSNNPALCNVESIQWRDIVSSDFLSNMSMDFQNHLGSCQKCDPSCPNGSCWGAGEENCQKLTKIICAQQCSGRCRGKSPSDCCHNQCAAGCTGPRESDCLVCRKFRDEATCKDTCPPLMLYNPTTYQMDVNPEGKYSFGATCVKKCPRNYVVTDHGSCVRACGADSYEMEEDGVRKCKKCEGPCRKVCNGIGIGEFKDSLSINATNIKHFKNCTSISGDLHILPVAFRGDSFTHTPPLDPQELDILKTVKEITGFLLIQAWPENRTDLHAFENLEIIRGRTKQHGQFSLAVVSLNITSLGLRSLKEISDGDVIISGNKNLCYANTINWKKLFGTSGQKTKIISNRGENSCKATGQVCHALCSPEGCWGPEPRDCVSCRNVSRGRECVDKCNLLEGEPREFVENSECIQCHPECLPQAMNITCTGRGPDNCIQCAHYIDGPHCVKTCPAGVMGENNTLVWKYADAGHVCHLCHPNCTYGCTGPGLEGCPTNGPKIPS
Sequence of EGFR (P00533 25-1210): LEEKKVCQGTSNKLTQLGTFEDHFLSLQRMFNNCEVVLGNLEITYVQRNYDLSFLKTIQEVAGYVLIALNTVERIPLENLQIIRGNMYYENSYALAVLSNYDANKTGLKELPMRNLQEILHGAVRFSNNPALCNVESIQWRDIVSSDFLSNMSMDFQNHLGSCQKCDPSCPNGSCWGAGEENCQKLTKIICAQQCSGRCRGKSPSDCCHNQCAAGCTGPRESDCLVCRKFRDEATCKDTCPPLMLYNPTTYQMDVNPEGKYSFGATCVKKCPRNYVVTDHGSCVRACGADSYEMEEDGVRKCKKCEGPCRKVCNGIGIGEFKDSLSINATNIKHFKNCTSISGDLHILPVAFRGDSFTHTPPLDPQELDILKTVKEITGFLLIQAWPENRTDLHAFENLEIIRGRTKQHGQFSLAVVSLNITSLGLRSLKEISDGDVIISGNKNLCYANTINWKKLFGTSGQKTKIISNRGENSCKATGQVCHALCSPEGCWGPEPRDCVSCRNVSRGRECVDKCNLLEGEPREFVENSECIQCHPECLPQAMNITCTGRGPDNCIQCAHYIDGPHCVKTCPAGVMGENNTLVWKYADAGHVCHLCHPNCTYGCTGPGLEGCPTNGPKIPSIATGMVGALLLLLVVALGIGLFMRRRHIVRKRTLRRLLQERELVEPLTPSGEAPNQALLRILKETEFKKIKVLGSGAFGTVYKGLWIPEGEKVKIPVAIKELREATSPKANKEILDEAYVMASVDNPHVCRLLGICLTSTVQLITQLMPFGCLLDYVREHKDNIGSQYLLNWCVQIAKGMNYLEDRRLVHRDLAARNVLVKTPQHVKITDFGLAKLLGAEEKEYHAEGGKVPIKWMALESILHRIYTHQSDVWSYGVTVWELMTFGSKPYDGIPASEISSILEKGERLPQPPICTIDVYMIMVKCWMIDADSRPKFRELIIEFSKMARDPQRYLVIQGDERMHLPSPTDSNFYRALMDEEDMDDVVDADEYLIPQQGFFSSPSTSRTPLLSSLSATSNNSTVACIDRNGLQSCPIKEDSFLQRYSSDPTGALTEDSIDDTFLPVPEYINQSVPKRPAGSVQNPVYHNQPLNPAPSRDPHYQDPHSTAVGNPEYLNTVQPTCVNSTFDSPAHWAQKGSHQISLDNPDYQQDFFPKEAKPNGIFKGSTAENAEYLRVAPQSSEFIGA
T2 sequence (P00533 25-1210): as above

CC(C)C[C@@H]1NC(=O)[C@H](Cc2ccc3ccccc3c2)NC(=O)[C@H](CCCNC(=N)N)NC(=O)[C@H](Cc2ccc3ccccc3c2)NC(=O)[C@H](CO)NC1=O [FLM-c2, cyclo-((2-Nal)-Leu-Ser-(2-Nal)-Arg)] (cyclo([2Nal]LS[2Nal]R))
EGFR degradation by western blot (EGFR): did not
IC50 (PC-3 cells): 211 µM
effect on EGFR, Rab5 and hGIIA localisation [1]: increased hGIIA/AF647 and Rab5-mCherry punctate size, as well as circularisation of EGFR-GFP expression
potency order in inhibiting the EGF/EGFR interaction (EGF-EGFR interaction): FLM-c2>D1>D2>D3
inhibition of the EGF/EGFR interaction (EGF-EGFR interaction; 0.01-200 μM): inhibited the EGF/EGFR interaction at high concentrations
inhibition of hGIIA-EGFR interaction (EGFR signal after pulldown with hGIIA antibody) [2]: able to inhibit this interaction
inhibition of hGIIA-driven eicosanoid production [3]: known to inhibit hGIIA-driven eicosanoid production
